Measured values from patent US20040038855A1 (priority 1999, published 2004).
Where two headings read alike, the source gives them in different places.

Key:
[1] = tested on: micturition reflex, conscious male Sprague Dawley rats; experiment: Continuous Slow Transvesicular Infusion (CSTI) rat model; type: in vivo; parameters: key to Effect of MCH1 antagonist in the CSTI model: B = Produced an increase in bladder capacity in rats relative to baseline capacity; settings: bladder capacity, intragastric
Experimental: The effects of compounds on the micturition reflex were assessed in the “distension-induced rhythmic contraction” (DIRC), as described in previous publications (e.g. Maggi et al, 1987; Morikawa et al, 1992), and Continuous Slow Transvesicular Infusion (CSTI) models in rats. Male Sprague Dawley rats weighing approximately 300 g were used for the study. Rats were anaesthetized with pentobarbitone sodium (50 mg/kg, i.p). Through a median abdominal incision, bladder was exposed and a polyethylene cannula (PE 50) was introduced into the bladder through a small cut on the dome of the bladder and the cannula was secured with a purse string suture. The other end of the cannula was exteriorized subcutaneously at the dorsal neck area. Similarly, another cannula (PE 50) was introduced into the stomach through a paramedian abdominal incision with the free end exteriorized subcutaneously to the neck region. The surgical wounds were closed with silk 4-0 suture and the animal was allowed to recover with appropriate post surgical care. On the following day, the animal was placed in a rat restrainer. The open end of the bladder cannula was connected to a pressure transducer as well as infusion pump through a three-way stopcock. The bladder voiding cycles were initiated by continuous infusion of normal saline at the rate of 100 ul/min. The repetitive voiding contractions were recorded on a Power Lab on-line data acquisition software. After recording the basal voiding pattern for an hour, the test drug or vehicle was administered directly into stomach through the intragastric catheter and the voiding cycles were monitored for 5 hours. Micturition pressure and frequency were calculated before and after the treatment (at every 30 min interval) for each animal. Bladder capacity was calculated from the micturition frequency, based on the constant infusion of 100 ul/min. The effect of the test drug was expressed as a percentage of basal, pre-drug bladder capacity. WAY 100635 was used as positive control for comparison.

[2] = target: T1, human Histamine H1 receptor (Homo sapiens, UniProt P35367); experiment: Binding affinity at the human histamine H1 receptor; settings: Table 3c; read-out: hH1 Ki
T1 construct: expressed in transfected cells
How it was run: (§1)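 Receptor binding read-out throughout; membranes expressing human D1 or D2 receptor were used for those two targets.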

[3] = target: T2, human Alpha-1a Adrenergic receptor (Homo sapiens, UniProt P35348); experiment: Binding affinity at the human alpha-1A adrenergic receptor; settings: Table 3c; read-out: hAlpha-1a Ki
T2 construct: expressed in transfected cells
T2 sequence (P35348 1-466): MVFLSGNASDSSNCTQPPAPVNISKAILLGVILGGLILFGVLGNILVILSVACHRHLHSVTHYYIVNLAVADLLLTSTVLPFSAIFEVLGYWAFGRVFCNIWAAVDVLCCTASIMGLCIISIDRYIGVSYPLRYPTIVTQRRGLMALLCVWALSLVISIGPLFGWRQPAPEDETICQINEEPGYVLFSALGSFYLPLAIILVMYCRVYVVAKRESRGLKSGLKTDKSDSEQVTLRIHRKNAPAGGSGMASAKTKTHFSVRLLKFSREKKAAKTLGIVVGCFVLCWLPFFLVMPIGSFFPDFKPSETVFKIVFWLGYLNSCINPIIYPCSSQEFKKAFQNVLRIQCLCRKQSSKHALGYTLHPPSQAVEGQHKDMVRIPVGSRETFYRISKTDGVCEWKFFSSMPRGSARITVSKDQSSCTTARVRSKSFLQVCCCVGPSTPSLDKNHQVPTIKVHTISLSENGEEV
How it was run: as §1

rat MCH1 receptor = target: T3, rat MCH1 receptor (Rattus norvegicus, UniProt P97639); experiment: Binding affinity (Ki) at the rat MCH1 receptor
T3 construct: expressed in transfected cells

[4] = target: T4, human Dopamine D2 receptor (Homo sapiens, UniProt P14416); experiment: Binding affinity at the human dopamine D2 receptor; settings: Table 3c; read-out: hD2 Ki
T4 construct: purchased BioSignal, Inc. (Montreal, Canada)
How it was run: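 Membrane-based binding format. For D1 and D2, membranes came from cells expressing the human receptor; the α2A and D5 binding assays are described only as standard receptor-binding procedures.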

human MCH1 receptor [5] = target: T5, human MCH1 receptor (Homo sapiens, UniProt Q99705); experiment: Saturation and competition binding of [3H]Compound 10, membranes of Cos-7 cells transfected with MCH1; parameters: expressed in transfected cells; host or cells: COS-7; settings: room temperature, 90 min; read-out: Kd (Scatchard analysis of saturation binding)
Experimental: Saturation equilibrium binding of [3H]Compound 10 to the human MCH1 receptor. Membrane preparations from Cos-7 cells transfected with MCH1 were incubated with varying concentrations of [3H]Compound 10 (SA: 56 Ci/mmol) at room temperature for 90 min, in a volume of 0.250 ml. The reaction was terminated by filtration in GF/C filters, and the radioactivity determined by scintillation counting. Non-specific binding was defined as the amount of radioactivity retained in the filter after incubating the reaction mixture in the presence of unlabeled Compound 10 ([…]).
Competition binding of [3H]Compound 10 to the human MCH1 receptor. […] The reaction was terminated by filtration in GF/C filters and the radioactivity bound to the membrane was determined by scintillation counting.
[3H]Compound 10 was tested for its ability to bind to membrane preparations of cells expressing the human MCH1 receptor.

human MCH1 receptor [6] = target: T5, human MCH1 receptor; type: cell-based; parameters: expressed in transfected cells; host or cells: COS-7; settings: agonist challenge
Experimental: Guidelines for cell preparation and assay of the second messenger inositol phosphate (IP) are described below for a typical protocol involving transiently transfected Cos-7 cells; For a 96 well microplate format assay, cells are plated at 70,000 cells per well and allowed to incubate for 24 hours after the transfection procedure. The cells are then labeled with 0.5 μCi [^3H]myo-inositol per micro-well over night at 37° C., 5% CO2. Immediately before the assay, the medium is removed and replaced with 90 μl PBS containing 10 mM LiCl. The plates are then incubated for 15 minutes at 37° C., […]. Following the incubation, the transfectants are challenged with agonist (10 μl/well; 10× concentration) for 30 minutes at 37° C., 5% CO2. The challenge is terminated and the cells lysed by the addition of 100 μl cold 5% v/v trichloroacetic acid (TCA), followed by an incubation at 4° C. for greater than 30 minutes. Total IPs are isolated from the lysate by ion exchange chromatography. Briefly, the lysed contents of the wells are transferred to a Multiscreen HV filter plate (Millipore) containing 100 μl Dowex AG1-X8 suspension (50% v/v, water:resin) (200-400 mesh, formate form). The filter plates are placed on a vacuum manifold to wash and elute the resin bed. Each well is first washed 2 times with 200 μl 5 mM myoinositol. Total [^3H]IPs are eluted with 75 μl of 1.2 M ammonium formate/0.1 M formic acid into Wallac 96-well plates. 200 μl of SuperMix scintillation cocktail is added to each well, mixed well, allowed to equilibrate and counted on a Micro Beta Trilux scintillation counter. (Note: The assay may be scaled to a 24 well format by simple adjustment of reagent volumes and employing individual chromatographic columns.)
The expression vector (pEXJ) containing the MCH1 cDNA was transfected by electroporation into Cos-7 cells in combination with an expression vector (pEXJ) containing the Gα16 subunit.

[7] = Examples 38-141, read-out: Ki (nM) rMCH1

T4 sequence (P14416 whole entry): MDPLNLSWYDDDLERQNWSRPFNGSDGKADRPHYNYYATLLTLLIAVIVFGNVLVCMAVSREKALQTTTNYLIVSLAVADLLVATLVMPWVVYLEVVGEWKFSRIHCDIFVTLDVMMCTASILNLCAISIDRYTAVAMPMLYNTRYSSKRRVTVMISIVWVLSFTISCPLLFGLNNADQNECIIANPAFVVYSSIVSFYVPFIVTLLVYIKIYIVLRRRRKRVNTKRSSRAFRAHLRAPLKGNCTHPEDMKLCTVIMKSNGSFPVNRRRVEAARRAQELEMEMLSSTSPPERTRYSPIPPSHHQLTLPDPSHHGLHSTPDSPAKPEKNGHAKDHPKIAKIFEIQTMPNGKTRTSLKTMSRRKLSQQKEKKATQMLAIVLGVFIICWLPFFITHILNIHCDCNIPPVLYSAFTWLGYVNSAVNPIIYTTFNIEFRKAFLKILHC
T1 sequence (P35367 whole entry): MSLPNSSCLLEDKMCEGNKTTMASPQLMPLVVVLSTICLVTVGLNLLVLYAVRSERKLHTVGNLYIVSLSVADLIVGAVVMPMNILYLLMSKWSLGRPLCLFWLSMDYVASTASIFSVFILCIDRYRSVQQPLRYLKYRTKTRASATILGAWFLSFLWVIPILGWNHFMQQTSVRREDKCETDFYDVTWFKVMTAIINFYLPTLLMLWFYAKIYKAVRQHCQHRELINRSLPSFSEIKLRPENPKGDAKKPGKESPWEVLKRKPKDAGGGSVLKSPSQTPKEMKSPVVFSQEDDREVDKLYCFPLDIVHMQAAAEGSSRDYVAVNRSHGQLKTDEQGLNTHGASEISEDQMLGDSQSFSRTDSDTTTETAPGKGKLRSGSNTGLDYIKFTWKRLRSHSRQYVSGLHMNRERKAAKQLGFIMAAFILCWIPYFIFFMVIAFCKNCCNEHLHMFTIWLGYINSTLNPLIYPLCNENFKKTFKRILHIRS
T3 sequence (P97639 whole entry): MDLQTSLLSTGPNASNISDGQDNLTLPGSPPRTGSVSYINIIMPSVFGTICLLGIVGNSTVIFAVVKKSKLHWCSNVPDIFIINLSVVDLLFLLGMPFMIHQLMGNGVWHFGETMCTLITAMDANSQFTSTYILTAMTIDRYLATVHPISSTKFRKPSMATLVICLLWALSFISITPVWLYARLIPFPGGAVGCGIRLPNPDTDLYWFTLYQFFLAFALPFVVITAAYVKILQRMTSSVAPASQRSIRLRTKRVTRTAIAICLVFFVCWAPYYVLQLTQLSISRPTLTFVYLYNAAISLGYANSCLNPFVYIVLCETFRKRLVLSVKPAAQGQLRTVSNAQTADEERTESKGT
T5 sequence (Q99705 whole entry): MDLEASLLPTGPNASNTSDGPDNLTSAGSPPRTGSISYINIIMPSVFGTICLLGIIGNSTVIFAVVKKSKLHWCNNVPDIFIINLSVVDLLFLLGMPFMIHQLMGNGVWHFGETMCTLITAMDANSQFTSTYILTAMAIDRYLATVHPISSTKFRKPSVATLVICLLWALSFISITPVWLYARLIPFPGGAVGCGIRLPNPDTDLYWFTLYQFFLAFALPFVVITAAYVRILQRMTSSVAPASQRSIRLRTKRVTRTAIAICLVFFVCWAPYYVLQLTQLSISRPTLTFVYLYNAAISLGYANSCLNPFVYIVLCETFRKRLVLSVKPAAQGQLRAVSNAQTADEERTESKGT

Compound: COCC1=C(C(=O)OC)[C@H](c2ccc(F)c(F)c2)N(C(=O)NCCCN2CCC(c3cccc(NC(=O)C(C)C)c3)CC2)C(=O)N1 [Example 43, METHYL (4S)-4-(3,4-DIFLUOROPHENYL)-3-{[(3-{4-[3-(ISOBUTYRYLAMINO)PHENYL]-1-PIPERIDINYL}PROPYL)AMINO]CARBONYL}-6-(METHOXYMETHYL)-2-OXO-1,2,3,4-TETRAHYDRO-5-PYRIMIDINECARBOXYLATE]
- Effect of MCH1 antagonist in the CSTI model [1]: B
- Ki [2]: 10800 nM
- Ki [3]: 21.9 nM
- Ki (rat MCH1 receptor; [7]): 0.23 nM
- Ki (rat MCH1 receptor; Table 3c, read-out: rMCH1 Ki): 0.23 nM
- Ki [4]: 3570 nM

Compound: Cc1ccc(C(=O)CCCN2CCC(c3cccc(NC(=O)C(C)C)c3)CC2)cc1C [Example 58]
- Effect of MCH1 antagonist in the CSTI model [1]: B
- Ki [2]: 700 nM
- Ki [3]: 32.1 nM
- Ki (rat MCH1 receptor; [7]): 3.9 nM
- Ki (rat MCH1 receptor; Table 3c, read-out: rMCH1 Ki): 3.9 nM
- Ki [4]: 2840 nM

Compound: CC(C)C(=O)Nc1cccc(C2CCN(CCCC(=O)c3ccc(Cl)cc3)CC2)c1 [Example 66]
- Effect of MCH1 antagonist in the CSTI model [1]: B
- Ki [2]: 461 nM
- Ki [3]: 19.4 nM
- Ki (rat MCH1 receptor; [7]): 2.8 nM
- Ki (rat MCH1 receptor; Table 3c, read-out: rMCH1 Ki): 2.8 nM
- Ki [4]: 862 nM

Compound: COCC1=C(C(=O)OC)[C@H](c2ccc(F)c(F)c2)N(C(=O)NCCCN2CCC(c3cccc(NC(C)=O)c3)CC2)C(=O)N1 [[3H]Compound 10, TRITIATED METHYL (4S)-3-{[(3-{4-[3-(ACETYLAMINO)PHENYL]-1-PIPERIDINYL}PROPYL)AMINO]CARBONYL}-4-(3,4-DIFLUOROPHENYL)-6-(METHOXYMETHYL)-2-OXO-1,2,3,4-TETRAHYDRO-5-PYRIMIDINECARBOXYLATE]
- Kd (human MCH1 receptor [5]): 0.18 nM

Compound: O=C(CCCN1CCC(O)(c2ccc(Cl)cc2)CC1)c1ccc(F)cc1 [haloperidol]
- dose-responsiveness of inositol phosphate formation (human MCH1 receptor [6]): No dose-responsiveness

Compound: dynorphin A1-13: compound tested for its ability to activate MCH1 (YGGFLRRIRPKLK)
- dose-responsiveness of inositol phosphate formation (human MCH1 receptor [6]): No dose-responsiveness
